According to ChEMBL document CHEMBL1201862, “PubChem BioAssay data set” (2004):
Active and inactive are the calls of the source.

Key:
[1] = target: Luciferin 4-monooxygenase (Photinus pyralis, UniProt P08659); assay: firefly luciferase enzyme inhibitors, dose response, biochemical, luminescence (AID 1891)
[2] = Luminescence Cell-Based Dose Confirmation HTS to Identify Inhibitors of Platelet Dense Granule Release. [Related pubchem assays: 1663 (Primary HTS), 1678 (Summary of Project)]; assay type: functional
[3] = P. falciparum Dd2 growth inhibitors, dose response, SYBR Green, cherry-picked samples (AID 1159567); assay type: functional, cell-based
[4] = HepG2 cell cytotoxicity, dose response, cytotoxicity control, cherry-picked samples (AID 1159577); assay type: functional, cell-based
[5] = target: T1, Heat shock factor protein 1 (Mus musculus, UniProt P38532); assay: inhibition of MG132-induced HSE-luciferase signal, confirmation, cell-based, NIH3T3, luminescence, dose retest (AID 2382); assay type: functional;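 also: NIH3T3 fibroblasts with HSF1-driven luciferase reporter stressed by proteasome inhibitor MG132; luminescence from HSF1-driven luciferase expression after 8 hours of MG132 stress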
T1 sequence (P38532 whole entry): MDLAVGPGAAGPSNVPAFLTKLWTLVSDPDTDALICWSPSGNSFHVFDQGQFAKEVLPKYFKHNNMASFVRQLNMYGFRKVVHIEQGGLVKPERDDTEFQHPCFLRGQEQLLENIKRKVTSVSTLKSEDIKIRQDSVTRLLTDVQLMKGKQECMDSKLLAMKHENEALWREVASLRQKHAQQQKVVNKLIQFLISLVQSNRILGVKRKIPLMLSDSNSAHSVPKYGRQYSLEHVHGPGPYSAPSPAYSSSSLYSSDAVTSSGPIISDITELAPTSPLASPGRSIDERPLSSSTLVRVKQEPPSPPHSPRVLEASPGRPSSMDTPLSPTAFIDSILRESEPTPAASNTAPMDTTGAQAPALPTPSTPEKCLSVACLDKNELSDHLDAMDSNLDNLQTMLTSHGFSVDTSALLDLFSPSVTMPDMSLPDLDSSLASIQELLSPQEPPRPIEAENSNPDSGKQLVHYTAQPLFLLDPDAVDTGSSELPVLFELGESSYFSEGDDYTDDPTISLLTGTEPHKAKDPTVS

[6] = Luminescence Cell-Based Dose Retest to Confirm Inhibitors of Cancer Stem Cells. [Related pubchem assays (depositor defined):AID2717, AID2721]; assay type: functional; settings: Homo sapiens
[7] = target: T2, Replicative DNA helicase DnaB (Mycobacterium tuberculosis, UniProt P9WMR3); assay: DnaB intein splicing inhibitors, dose response, biochemical, cell-free fluorescence (AID 449749); assay type: functional
T2 sequence (P9WMR3 whole entry): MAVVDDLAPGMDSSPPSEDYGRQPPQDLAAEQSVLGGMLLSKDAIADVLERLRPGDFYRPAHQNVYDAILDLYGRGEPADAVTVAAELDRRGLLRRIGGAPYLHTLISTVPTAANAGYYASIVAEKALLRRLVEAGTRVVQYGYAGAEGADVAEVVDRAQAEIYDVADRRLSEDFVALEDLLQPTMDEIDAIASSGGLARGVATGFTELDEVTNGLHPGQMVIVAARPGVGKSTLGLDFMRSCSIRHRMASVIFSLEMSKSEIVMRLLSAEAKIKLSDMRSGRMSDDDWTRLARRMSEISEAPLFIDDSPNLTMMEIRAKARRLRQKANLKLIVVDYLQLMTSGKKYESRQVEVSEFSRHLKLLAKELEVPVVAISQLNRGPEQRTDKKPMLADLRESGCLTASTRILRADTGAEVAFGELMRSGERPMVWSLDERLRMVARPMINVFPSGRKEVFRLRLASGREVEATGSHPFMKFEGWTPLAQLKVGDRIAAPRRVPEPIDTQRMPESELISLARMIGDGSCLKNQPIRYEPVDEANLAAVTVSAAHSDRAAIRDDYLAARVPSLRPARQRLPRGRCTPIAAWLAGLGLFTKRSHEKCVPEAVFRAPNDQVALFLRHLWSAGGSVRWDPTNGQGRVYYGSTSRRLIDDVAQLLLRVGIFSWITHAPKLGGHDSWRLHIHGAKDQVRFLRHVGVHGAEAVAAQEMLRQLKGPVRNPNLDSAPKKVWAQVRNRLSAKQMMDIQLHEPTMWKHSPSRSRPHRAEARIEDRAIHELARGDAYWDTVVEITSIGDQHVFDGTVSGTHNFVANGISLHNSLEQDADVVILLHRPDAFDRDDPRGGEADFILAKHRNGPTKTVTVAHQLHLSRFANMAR

Protein RecA = target: T3, Protein RecA (Mycobacterium tuberculosis, UniProt P9WHJ3); assay: Fluorescence Cell-Free Homogeneous Dose Retest to Identify Inhibitors of RecA-Intein Splicing Activity. [Related pubchem assays (depositor defined):AID2097, AID2223, AID489010, AID492950]; assay type: functional
T3 sequence (P9WHJ3 whole entry): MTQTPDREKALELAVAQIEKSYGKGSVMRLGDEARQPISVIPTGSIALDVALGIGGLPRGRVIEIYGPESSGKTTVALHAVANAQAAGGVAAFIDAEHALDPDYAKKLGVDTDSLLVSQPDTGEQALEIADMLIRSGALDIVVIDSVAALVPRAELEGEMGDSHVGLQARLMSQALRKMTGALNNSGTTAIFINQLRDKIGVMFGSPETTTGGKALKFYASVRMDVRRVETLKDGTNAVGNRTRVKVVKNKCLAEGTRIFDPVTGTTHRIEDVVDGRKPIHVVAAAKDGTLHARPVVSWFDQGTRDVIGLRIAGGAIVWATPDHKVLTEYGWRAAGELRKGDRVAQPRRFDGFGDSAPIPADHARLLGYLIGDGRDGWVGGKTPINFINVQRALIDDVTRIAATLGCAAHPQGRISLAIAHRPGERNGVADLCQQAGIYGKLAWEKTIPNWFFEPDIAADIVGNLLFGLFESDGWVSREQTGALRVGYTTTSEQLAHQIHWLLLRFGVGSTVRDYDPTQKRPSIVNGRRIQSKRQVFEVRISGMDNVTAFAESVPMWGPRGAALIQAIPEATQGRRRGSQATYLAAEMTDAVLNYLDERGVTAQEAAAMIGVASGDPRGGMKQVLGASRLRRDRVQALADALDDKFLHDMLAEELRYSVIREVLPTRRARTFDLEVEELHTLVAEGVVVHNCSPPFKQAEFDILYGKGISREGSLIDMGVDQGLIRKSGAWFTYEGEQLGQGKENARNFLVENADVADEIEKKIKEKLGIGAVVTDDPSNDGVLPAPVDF

[8] = HepG2 cell cytotoxicity, dose response, cytotoxicity control, plate reader, cherry-pick, antagonist series (AID 743416); assay type: functional, cell-based
[9] = HEK293 cell cytotoxicity, dose response, cytotoxicity control, plate reader, cherry-picked samples (AID 743446); assay type: functional, cell-based
[10] = target: Glyceraldehyde-3-phosphate dehydrogenase (Homo sapiens, UniProt P04406)
Sequence of Glyceraldehyde-3-phosphate dehydrogenase (P04406 whole entry): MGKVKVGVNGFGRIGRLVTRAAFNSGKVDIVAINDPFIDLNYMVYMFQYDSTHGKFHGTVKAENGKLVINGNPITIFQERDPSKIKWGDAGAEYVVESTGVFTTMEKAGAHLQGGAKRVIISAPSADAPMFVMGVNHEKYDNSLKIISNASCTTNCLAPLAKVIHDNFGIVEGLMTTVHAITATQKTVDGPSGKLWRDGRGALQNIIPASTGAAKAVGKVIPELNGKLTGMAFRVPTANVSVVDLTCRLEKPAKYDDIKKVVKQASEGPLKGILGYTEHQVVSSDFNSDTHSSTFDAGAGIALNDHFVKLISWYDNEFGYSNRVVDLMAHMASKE

HEK293 [11] = assay: NOD1 signaling inhibitors, primary screen, cell-based, luminescence, uHTS (AID 1578); assay type: functional; settings: Homo sapiens
HEK293 [12] = assay: cells; assay type: functional, cell-based; settings: Homo sapiens
HEK293 [13] = assay: cells; assay type: functional, cell-based; settings: Homo sapiens; remark: listed apart in the source
HEK293 [14] = assay: NOD2 signaling inhibitors in MDP-stimulated cells, cell-based, uHTS, luminescence (AID 2001); assay type: functional; settings: Homo sapiens
[15] = Shn3 3'UTR reporter inhibitors, dose response, cell-based, Clone20 osteoblasts, firefly luciferase, cherry-picked (AID 624132); assay type: functional;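 also: firefly luciferase luminescence from reporter carrying the Shn3 3'UTR in osteoblasts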
[16] = HepG2 cell cytotoxicity, dose response, cytotoxicity control for Shn3 inhibitor project, CellTiter-Glo, cherry-picked (AID 624134); assay type: functional, cell-based
[17] = control 3'UTR Renilla luciferase suppression, dose response, counter-screen for Shn3 inhibitor project, cell-based, Clone20-Shn3RL, cherry-picked (AID 624133); assay type: functional
[18] = target: Induced myeloid leukemia cell differentiation protein Mcl-1 (Homo sapiens, UniProt Q07820); assay type: functional
Sequence of Induced myeloid leukemia cell differentiation protein Mcl-1 (Q07820 whole entry): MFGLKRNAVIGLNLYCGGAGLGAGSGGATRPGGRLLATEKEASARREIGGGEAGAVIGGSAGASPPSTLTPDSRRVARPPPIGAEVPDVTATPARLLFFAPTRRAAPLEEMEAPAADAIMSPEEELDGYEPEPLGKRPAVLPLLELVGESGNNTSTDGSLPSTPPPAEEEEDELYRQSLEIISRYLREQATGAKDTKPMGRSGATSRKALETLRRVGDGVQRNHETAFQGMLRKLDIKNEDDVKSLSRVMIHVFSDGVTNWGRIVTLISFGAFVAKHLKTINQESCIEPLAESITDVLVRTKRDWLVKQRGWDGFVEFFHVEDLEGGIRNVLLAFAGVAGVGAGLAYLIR

Genome polyprotein = Genome polyprotein (dengue virus type 2, UniProt P29990); assay: Dengue-2 NS5 methyltransferase inhibitors, primary screen, biochemical, confirmation dose response (AID 588689); assay type: functional
Sequence of Genome polyprotein (P29990 2492-3391 limits assumed): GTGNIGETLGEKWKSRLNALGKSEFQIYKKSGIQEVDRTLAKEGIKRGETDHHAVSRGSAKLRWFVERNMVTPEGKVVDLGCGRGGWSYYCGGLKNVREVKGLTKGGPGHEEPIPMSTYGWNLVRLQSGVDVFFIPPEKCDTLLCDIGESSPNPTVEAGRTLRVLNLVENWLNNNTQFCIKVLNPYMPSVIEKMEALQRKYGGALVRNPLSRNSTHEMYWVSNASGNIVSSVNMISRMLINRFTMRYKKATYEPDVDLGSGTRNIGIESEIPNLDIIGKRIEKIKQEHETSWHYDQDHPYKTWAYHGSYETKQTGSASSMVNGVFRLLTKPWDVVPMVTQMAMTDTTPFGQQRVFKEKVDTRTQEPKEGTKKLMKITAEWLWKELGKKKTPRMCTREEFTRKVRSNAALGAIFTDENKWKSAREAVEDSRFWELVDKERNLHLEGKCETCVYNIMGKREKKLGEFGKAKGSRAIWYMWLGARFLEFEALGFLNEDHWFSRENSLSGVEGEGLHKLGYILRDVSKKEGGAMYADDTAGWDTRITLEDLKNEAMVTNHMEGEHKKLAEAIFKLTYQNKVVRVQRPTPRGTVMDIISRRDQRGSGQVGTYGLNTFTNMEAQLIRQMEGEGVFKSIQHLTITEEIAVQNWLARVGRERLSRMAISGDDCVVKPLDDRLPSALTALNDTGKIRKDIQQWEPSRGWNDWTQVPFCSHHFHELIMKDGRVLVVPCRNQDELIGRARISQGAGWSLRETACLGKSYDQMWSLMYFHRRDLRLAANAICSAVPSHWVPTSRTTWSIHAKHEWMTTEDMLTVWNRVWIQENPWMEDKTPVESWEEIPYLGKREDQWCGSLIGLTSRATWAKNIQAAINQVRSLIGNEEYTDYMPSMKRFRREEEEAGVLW

[19] = target: T4, Polyadenylate-binding protein 1 (Homo sapiens, UniProt P11940); assay: PABP1 MLLE–PAM2 interaction inhibitors, dose response, miRNA deadenylation inhibitor project, biochemical, fluorescence polarization, Cy5-PAM2 peptide, secondary (AID 602260); assay type: functional; settings: read-out: IC50_Mean
T4 sequence (P11940 whole entry): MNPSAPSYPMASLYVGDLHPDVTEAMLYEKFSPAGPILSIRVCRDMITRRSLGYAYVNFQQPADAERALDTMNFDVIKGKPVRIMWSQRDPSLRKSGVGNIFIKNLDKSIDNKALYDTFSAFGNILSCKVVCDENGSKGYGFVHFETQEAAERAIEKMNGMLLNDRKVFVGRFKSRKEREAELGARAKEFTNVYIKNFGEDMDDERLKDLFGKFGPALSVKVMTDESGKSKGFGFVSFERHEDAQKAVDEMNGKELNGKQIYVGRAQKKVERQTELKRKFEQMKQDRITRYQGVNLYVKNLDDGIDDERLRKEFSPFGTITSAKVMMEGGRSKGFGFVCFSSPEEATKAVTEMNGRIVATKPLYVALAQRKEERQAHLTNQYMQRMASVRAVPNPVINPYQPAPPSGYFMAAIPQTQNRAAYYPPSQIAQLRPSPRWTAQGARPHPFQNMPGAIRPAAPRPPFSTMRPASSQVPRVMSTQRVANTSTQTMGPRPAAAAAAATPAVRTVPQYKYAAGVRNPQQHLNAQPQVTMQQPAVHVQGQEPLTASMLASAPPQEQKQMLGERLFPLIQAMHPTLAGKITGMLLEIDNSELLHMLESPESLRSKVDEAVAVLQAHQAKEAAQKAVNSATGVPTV

[20] = target: T4, Polyadenylate-binding protein 1; assay: PABP1 MLLE–PAM2 binding inhibitor potency, dose response, biochemical, fluorescence polarization, FITC-PAM2 peptide (AID 602259); assay type: functional; settings: read-out: IC50_Mean
[21] = target: T5, Histone-lysine N-methyltransferase NSD2 (Homo sapiens, UniProt O96028); assay type: biochemical
T5 sequence (O96028 whole entry): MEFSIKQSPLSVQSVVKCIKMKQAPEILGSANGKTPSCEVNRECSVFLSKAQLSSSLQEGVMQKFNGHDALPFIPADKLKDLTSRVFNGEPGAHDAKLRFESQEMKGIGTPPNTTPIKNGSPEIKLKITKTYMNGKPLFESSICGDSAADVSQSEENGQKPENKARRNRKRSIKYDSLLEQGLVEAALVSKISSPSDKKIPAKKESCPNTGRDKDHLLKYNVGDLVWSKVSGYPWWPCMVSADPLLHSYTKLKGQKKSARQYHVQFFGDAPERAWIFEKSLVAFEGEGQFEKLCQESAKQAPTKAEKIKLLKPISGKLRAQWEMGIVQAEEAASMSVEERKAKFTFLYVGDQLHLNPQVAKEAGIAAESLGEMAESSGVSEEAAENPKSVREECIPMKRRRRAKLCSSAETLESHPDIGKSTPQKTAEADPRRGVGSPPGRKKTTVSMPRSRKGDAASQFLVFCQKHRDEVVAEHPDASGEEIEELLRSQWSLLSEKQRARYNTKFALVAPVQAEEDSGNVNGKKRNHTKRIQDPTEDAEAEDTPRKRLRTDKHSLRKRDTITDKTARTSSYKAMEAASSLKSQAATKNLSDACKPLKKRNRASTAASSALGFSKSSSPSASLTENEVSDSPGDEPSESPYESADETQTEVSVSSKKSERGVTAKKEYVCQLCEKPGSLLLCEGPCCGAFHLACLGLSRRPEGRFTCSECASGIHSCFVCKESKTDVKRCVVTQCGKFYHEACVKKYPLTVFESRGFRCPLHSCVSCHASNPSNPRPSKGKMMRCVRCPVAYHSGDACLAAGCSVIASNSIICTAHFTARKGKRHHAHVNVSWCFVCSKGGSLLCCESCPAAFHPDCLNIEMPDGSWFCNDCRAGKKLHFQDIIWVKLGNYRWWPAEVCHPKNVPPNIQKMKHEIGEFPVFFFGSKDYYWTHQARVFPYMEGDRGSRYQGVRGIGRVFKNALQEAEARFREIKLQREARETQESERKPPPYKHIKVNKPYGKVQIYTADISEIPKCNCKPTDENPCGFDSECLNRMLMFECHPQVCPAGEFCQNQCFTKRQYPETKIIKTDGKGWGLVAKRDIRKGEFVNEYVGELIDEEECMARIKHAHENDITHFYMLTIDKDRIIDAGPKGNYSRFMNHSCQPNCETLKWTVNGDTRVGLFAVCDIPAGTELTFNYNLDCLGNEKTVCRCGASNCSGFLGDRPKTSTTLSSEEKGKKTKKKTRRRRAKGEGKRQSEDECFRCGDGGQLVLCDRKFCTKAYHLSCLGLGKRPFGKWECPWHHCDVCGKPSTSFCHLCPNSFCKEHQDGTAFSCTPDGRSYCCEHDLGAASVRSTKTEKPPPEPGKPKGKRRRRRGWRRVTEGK

Sequence of Luciferin 4-monooxygenase (P08659 whole entry): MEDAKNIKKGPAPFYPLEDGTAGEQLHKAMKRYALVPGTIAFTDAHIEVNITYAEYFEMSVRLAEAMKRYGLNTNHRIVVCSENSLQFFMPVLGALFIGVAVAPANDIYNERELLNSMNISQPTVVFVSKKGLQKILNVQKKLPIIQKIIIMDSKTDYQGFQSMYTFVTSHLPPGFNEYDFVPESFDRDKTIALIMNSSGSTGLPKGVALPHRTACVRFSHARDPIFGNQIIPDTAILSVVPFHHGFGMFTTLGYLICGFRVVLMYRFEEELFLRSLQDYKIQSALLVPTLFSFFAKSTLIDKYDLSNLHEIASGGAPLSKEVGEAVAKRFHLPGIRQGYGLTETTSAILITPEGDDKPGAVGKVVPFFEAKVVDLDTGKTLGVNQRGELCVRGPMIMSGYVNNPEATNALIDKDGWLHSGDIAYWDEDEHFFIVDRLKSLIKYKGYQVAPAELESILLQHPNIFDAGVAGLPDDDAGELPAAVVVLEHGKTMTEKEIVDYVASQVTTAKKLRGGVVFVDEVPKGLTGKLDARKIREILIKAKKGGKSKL

## CN(C)CCN(Cc1ccccc1)S(=O)(=O)c1ccc(-c2ccc(O)nn2)s1
[1]
  EC50: > 112 µM (not active)
[2]
  EC50: 6.77 µM (active)

## COc1ccc(S(=O)(=O)N2CCCCN3[C@@H](CO)[C@@H](c4ccc(C#CCC(C)C)cc4)[C@@H]3C2)cc1
[3]
  AC50: 1.63 µM (active)
[4]
  AC50: 18.9 µM (active)

## C[C@@H]1CN([C@@H](C)CO)C(=O)c2c(c3ccccc3n2C)-c2ccccc2CO[C@@H]1CN(C)Cc1cccc(C(F)(F)F)c1
[3]
  AC50: 1.64 µM (active)
[4]
  AC50: 14 µM (active)

## O=S(=O)(Nc1ccc(O)c2ccccc12)c1ccc(OC(F)(F)F)cc1
[5]
  EC50: > 195 µM (not active)
[6]
  AC50: 6.55 µM (active)
[7]
  AC50: 0.26 µM (active)
Protein RecA
  EC50: 0.0666 µM (active)
[8]
  AC50: > 52 µM (inactive)
[9]
  AC50: 24.9 µM (active)

## Cc1ccc(NC(=O)COc2ccc(C(=O)NCCc3ccccc3)cc2)cc1
[1]
  EC50: > 112 µM (not active)
[2]
  EC50: > 112 µM (not active)

## C[C@@H]1CN(C2=C(Cl)C(=O)N(c3ccc(Cl)nc3)C2=O)CCN1
[10]
  IC50: > 50 µM (inconclusive)

## O=C(c1cc(COc2c(F)cccc2F)on1)N1CCC(c2ccncc2)CC1
HEK293 [11]
  EC50: 2.64 µM (active)
HEK293 [12]
  IC50: 9.14 µM (active)
HEK293 [13]
  IC50: > 20 µM (inactive)
HEK293 [14]
  IC50: 17.1 µM (inactive)
[15]
  AC50: 1.6 µM (active)
[16]
  AC50: 6.75 µM (active)
[17]
  AC50: 2.31 µM (active)

## Cc1cc2c(cc1C)NC(c1ccccn1)C1=C(O)CC(C)(C)CC1=N2 (stereo unspecified)
[1]
  EC50: > 112 µM (not active)
[2]
  EC50: > 112 µM (not active)

## CO[C@@H]1CN(C)C(=O)c2cc(NC(=O)c3ccc(Oc4ccccc4)cc3)ccc2OC[C@@H](C)NC[C@@H]1C
[4]
  AC50: 20.7 µM (active)

## CC(NS(C)(=O)=O)C(c1cccs1)N1CCN(Cc2ccccc2)CC1 (stereo unspecified)
[1]
  EC50: > 112 µM (not active)
[2]
  EC50: > 112 µM (not active)

## CC(=O)c1cc(O)c2ccccc2c1O
[18]
  IC50: 5.99 µM (active)
[7]
  AC50: > 380 µM (inactive)
Protein RecA
  EC50: 2.82 µM (active)
Genome polyprotein
  IC50: 29.7 µM (active)
[19]
  IC50: > 66 µM (inactive)
[20]
  IC50: > 66 µM (inactive)
[21]
  AC50: 10.6 µM (active)

## C[C@H](CO)N1C[C@H](C)[C@@H](CN(C)Cc2ccc3c(c2)OCO3)Oc2ccc(NC(=O)Nc3ccc4c(c3)OCO4)cc2CC1=O
[3]
  AC50: 4.28 µM (active)
[4]
  AC50: > 42 µM (inactive)
